Common to all, as to assay type: biochemical
The target of one test is ROCK I (Homo sapiens, UniProt Q13464). Briefly: ROCK-I inhibition assay (radioactive enzyme assay, MBP substrate). A digest of the protocol:
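Human ROCK at 5 nM phosphorylated 27 μM myelin basic protein with 13 μM [γ-33P]ATP (final) in HEPES pH 7.5, MgCl2, NaCl, DTT and 1.5% DMSO. Reactions ran 2 h at room temperature before TCA quench and filter-plate scintillation counting. After background subtraction, data were fit to give Ki(app).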

Another test has as its target T1, JAK3 (Homo sapiens, UniProt P52333).
T1 sequence (P52333 1-1124): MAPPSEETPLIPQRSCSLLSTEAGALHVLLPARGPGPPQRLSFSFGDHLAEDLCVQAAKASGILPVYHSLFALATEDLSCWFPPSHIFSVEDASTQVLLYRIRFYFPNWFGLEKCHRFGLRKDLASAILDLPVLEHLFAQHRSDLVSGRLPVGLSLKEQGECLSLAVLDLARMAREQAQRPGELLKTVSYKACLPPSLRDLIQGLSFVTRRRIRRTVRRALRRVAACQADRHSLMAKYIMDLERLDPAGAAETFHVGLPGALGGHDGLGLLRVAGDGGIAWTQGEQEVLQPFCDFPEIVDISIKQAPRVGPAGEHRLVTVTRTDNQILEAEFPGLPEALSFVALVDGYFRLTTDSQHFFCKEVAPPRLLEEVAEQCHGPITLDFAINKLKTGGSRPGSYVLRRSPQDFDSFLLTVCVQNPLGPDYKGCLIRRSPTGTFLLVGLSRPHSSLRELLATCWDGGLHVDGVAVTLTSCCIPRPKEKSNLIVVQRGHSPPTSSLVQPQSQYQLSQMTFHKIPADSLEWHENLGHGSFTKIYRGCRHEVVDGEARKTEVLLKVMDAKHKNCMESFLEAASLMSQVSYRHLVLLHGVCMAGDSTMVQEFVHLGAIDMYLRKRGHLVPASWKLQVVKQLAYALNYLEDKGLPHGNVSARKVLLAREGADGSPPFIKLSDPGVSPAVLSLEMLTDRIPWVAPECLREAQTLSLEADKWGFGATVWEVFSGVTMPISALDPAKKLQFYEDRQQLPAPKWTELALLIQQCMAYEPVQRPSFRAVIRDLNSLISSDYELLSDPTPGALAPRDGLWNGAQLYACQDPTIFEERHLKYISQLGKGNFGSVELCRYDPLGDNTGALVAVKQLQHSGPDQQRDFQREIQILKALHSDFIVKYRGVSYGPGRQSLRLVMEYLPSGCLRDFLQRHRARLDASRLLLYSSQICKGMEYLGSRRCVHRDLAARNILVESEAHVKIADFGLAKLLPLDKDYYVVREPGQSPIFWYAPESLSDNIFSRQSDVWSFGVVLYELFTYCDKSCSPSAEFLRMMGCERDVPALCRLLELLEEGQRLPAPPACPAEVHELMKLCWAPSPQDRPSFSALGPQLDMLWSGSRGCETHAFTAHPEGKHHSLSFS
Description: JAK3 inhibition assay (33P incorporation into poly(Glu)4Tyr). A digest of the protocol: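 Human JAK3 at 1 nM phosphorylated 1 μM poly(Glu)4Tyr using 5 μM [33P]ATP in HEPES pH 7.4 buffer with MgCl2, DTT and BSA. Reactions ran 20 min at 25° C. and were stopped with TCA. 33P incorporation was measured by scintillation after glass-fiber filter capture.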

Another test concerns the target JAK2 (Homo sapiens, UniProt O60674). Description: JAK2 inhibition assay (as Example 3 with JAK-2 enzyme). A digest of the protocol:
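Radiometric JAK2 kinase assay: poly(Glu)4Tyr substrate at final 15 μM, ATP at final 12 μM with [33P]; buffer 100 mM HEPES pH 7.4, 1 mM DTT, 10 mM MgCl2, 25 mM NaCl, 0.01% BSA. 20 min at 25 °C, TCA-stopped, 33P incorporation counted after filter capture.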

Where [1] appears, read: Table 6, enzyme inhibition data (Ki).
Setting [2] is: enzyme inhibition, Ki(app), Table 5.

Each structure is given as a SMILES string.

Sequence of JAK2 (O60674 whole entry): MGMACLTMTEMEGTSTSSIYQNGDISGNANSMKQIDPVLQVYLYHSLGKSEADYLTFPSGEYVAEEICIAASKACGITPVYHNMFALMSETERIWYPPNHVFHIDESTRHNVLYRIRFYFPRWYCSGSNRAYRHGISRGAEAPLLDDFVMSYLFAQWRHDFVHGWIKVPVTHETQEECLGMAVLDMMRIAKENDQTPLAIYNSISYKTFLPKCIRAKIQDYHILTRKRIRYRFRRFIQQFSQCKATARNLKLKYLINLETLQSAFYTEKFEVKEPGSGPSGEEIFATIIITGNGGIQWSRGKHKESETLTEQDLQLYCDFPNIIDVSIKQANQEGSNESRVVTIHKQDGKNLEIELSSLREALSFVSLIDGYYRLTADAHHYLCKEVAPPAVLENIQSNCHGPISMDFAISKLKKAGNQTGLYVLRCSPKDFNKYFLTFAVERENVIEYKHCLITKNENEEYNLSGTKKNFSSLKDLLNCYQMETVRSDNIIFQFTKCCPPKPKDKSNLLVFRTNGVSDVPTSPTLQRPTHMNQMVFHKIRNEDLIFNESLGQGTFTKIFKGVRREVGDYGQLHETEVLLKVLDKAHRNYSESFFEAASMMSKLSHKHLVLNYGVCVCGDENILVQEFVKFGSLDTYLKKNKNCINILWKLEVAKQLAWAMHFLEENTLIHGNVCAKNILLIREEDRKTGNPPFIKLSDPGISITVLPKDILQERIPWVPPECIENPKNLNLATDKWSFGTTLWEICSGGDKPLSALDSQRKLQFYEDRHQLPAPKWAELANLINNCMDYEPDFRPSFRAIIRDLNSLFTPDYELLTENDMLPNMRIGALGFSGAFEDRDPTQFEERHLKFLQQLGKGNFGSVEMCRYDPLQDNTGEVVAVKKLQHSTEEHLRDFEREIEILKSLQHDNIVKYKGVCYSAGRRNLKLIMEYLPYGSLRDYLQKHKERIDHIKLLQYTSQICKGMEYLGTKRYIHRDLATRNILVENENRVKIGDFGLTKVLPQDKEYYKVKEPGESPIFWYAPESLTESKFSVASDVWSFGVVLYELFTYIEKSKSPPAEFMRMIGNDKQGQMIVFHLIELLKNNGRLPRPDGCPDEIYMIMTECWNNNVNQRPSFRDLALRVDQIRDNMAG
Sequence of ROCK I (Q13464 whole entry): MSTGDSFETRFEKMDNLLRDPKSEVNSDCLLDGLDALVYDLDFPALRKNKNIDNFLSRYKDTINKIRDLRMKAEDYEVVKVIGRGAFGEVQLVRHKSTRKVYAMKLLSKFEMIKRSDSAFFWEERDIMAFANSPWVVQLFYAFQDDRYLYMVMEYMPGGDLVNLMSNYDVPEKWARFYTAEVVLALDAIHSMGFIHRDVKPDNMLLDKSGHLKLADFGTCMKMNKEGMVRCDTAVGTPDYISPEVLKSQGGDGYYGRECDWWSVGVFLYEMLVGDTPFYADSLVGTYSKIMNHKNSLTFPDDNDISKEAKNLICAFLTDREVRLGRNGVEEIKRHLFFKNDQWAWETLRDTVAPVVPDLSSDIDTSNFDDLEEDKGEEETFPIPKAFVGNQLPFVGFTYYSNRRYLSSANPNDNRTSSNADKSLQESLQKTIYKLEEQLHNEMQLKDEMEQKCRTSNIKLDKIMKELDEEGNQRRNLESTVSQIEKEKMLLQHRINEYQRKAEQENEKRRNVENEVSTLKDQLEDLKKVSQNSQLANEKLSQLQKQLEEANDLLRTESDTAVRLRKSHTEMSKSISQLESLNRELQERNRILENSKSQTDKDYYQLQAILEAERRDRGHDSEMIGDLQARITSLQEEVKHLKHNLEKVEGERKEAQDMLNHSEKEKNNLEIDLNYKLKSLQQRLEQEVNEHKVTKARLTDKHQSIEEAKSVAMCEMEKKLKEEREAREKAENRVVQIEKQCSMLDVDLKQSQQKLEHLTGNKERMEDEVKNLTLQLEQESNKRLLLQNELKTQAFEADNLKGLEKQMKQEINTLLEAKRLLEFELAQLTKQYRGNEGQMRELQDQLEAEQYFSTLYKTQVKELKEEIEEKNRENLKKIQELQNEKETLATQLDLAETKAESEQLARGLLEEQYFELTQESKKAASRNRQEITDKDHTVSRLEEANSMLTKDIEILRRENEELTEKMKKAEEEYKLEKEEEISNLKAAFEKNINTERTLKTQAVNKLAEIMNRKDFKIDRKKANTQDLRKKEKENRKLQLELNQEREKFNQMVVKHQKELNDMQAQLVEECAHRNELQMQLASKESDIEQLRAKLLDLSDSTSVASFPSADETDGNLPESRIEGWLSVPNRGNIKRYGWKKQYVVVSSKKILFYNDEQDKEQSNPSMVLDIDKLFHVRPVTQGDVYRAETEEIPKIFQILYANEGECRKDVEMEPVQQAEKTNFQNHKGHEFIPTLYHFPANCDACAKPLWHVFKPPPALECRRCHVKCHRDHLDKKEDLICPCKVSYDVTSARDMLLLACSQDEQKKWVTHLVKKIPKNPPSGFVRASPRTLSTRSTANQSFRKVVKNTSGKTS

As for `N#CCCN(CC1CC1)C(=O)c1cc(-c2c(F)cnc3[nH]ccc23)c[nH]1` [compound 398], the Ki at ROCK I (setting [1]), at JAK3 (setting [1]) and on JAK2 (setting [1]) was under 500 nM in each case.

Turning to `CN1CCN(Cc2cccc(-c3ccnc4[nH]ccc34)c2)CC1` [compound 89, 4-[3-(4-Methyl-piperazin-1-ylmethyl)-phenyl]-1H-pyrrolo[2,3-b]pyridine], the Ki at ROCK I (setting [2]) lay in the range of 500 to 5000 nM; on JAK3 (enzyme inhibition, Table 5), 500 to 5000 nM; on JAK2 (enzyme inhibition, Table 5), 500 to 5000 nM.

As for `CCc1ccccc1-c1ccnc2[nH]ccc12` [compound 231], the Ki at ROCK I (setting [1]), at JAK3 (setting [1]) and at JAK2 (setting [1]) was 500 to 5000 nM throughout.

With `O=C(NCC(F)(F)F)[C@@H]1CCCN1c1nc(-c2ccnc3[nH]ccc23)ncc1F` [compound 199], the Ki on ROCK I (setting [1]) is over 4000 nM; on JAK3 (setting [1]), under 500 nM; on JAK2 (setting [1]) it was 500 to 5000 nM.

For `CS(=O)(=O)N1CCCC(Nc2c(Cl)cnc3[nH]ccc23)C1` (stereo not drawn) [compound 182], the Ki on ROCK I (setting [1]) was 500 to 5000 nM; at JAK3 (setting [1]) it was under 500 nM; at JAK2 (setting [1]) it was under 500 nM.

For `N#CCCN(Cc1ccccc1)C(=O)c1cc(-c2c(F)cnc3[nH]ccc23)c[nH]1` [compound 394], the Ki on ROCK I (setting [1]), on JAK3 (setting [1]) and on JAK2 (setting [1]) was under 500 nM in each case.

On to `O=C(NCC(F)(F)F)[C@H]1CCCCN1c1ccnc(-c2ccnc3[nH]ccc23)n1` [compound 215], for which the Ki at ROCK I (setting [1]) is over 4000 nM; on JAK3 (setting [1]), under 500 nM; at JAK2 (setting [1]) it was 500 to 5000 nM.

For `CN(CCC#N)C(=O)c1cc(-c2ccnc3[nH]ccc23)c[nH]1` [compound 306], the Ki at ROCK I (setting [1]), on JAK3 (setting [1]) and at JAK2 (setting [1]) was under 500 nM each time.

For the compound `C=CCN(C(=O)c1cc(-c2c(F)cnc3[nH]ccc23)c[nH]1)C(C)c1ccccc1` (stereo not drawn) [compound 385], the figures for the Ki at ROCK I (setting [1]), at JAK3 (setting [1]) and on JAK2 (setting [1]) were 500 to 5000 nM, under 500 nM and under 500 nM, respectively.

As for `COc1cccc(OC)c1-c1ccnc2[nH]ccc12` [compound 222], the Ki on ROCK I (setting [1]) was over 4000 nM; on JAK3 (setting [1]), over 5000 nM; at JAK2 (setting [1]) it was over 5000 nM.

As to `CN(CC(F)(F)F)C(=O)c1cc(-c2c(F)cnc3[nH]ccc23)c[nH]1` [compound 393], the Ki at ROCK I (setting [1]), on JAK3 (setting [1]) and on JAK2 (setting [1]) was under 500 nM each time.

In the case of `CCN(CCO)C(=O)c1cc(-c2ccnc3[nH]ccc23)c[nH]1` [compound 361], the Ki at ROCK I (setting [1]), on JAK3 (setting [1]) and on JAK2 (setting [1]) was under 500 nM throughout.

As for `CCCNC(=O)c1ccc(-c2ccnc3[nH]ccc23)cc1` [compound 267], the Ki on ROCK I (setting [1]), at JAK3 (setting [1]) and at JAK2 (setting [1]) was under 500 nM in each case.

As for `CC(=O)c1ccc(-c2c(Cl)cnc3[nH]ccc23)s1` [compound 145], the results for the Ki on ROCK I (setting [1]), at JAK3 (setting [1]) and at JAK2 (setting [1]) were over 4000 nM, under 500 nM and under 500 nM, respectively.

For the compound `CC(C)(C(=O)NCC(F)(F)F)c1cccc(-c2ccnc3[nH]ccc23)n1` [compound 265], the Ki at ROCK I (setting [1]), on JAK3 (setting [1]) and at JAK2 (setting [1]) was under 500 nM each time.

In the case of `CC(C)(Nc1nc(-c2ccnc3[nH]ccc23)nc2ccccc12)C(=O)NCC(F)(F)F` [compound 132], the Ki at ROCK I (setting [2]) was 500 to 5000 nM; on JAK3 (enzyme inhibition, Table 5), 500 to 5000 nM; at JAK2 (enzyme inhibition, Table 5), over 5000 nM.

As for `O=C(O)c1ccccc1-c1ccnc2[nH]ccc12` [compound 238], the Ki on ROCK I (setting [1]) was over 4000 nM; at JAK3 (setting [1]) it was over 5000 nM; at JAK2 (setting [1]) it was over 5000 nM.

On to `N#CCCN(CCC(F)(F)F)C(=O)c1csc(-c2ccnc3[nH]ccc23)n1` [compound 405, 2-(1H-Pyrrolo[2,3-b]pyridin-4-yl)-thiazole-4-carboxylic acid (2-cyano-ethyl)-(3,3,3-trifluoro-propyl)-amide], for which the Ki on ROCK I (setting [1]), on JAK3 (setting [1]) and at JAK2 (setting [1]) was under 500 nM each time.

Take `N#CCN(Cc1ccc(F)cc1)C(=O)c1cc(-c2c(F)cnc3[nH]ccc23)c[nH]1` [compound 400]: the Ki at ROCK I (setting [1]), at JAK3 (setting [1]) and on JAK2 (setting [1]) was under 500 nM in each case.

For `CC(C)(C)OC(=O)n1cccc1-c1c(Cl)cnc2[nH]ccc12` [compound 143], the Ki at ROCK I (setting [1]) was over 4000 nM; at JAK3 (setting [1]) it was over 5000 nM; at JAK2 (setting [1]), 500 to 5000 nM.

`CCC(C)CNc1cccc(-c2ccnc3[nH]ccc23)n1` (stereo not drawn) [compound 72, N-(2-Methylbutyl)-6-(1H-pyrrolo[2,3-b]pyridin-4-yl)pyridin-2-amine]: the Ki at ROCK I (setting [2]) is 500 to 5000 nM; on JAK3 (enzyme inhibition, Table 5), 500 to 5000 nM; on JAK2 (enzyme inhibition, Table 5) it was under 500 nM.

Consider `C[C@H](Nc1nc(-c2ccnc3[nH]ccc23)ncc1F)C(=O)NCC(F)(F)F` [compound 121, (S)-2-(5-fluoro-2-(1H-pyrrolo[2,3b]pyridin-4-yl)pyrimidin-4-ylamino)-N-(2,2,2-trifluoroethyl)propanamide], for which the Ki on ROCK I (setting [2]) is 500 to 5000 nM; on JAK3 (enzyme inhibition, Table 5) it was under 500 nM; at JAK2 (enzyme inhibition, Table 5) it was 500 to 5000 nM.

On to `O=C(c1csc(-c2ccnc3[nH]ccc23)n1)N1CC=CC1` [compound 415], for which the Ki is under 500 nM at ROCK I (setting [1]), 500 to 5000 nM on JAK3 (setting [1]) and under 500 nM at JAK2 (setting [1]).

Take `O=C(CC(F)(F)F)N1CC[C@@H](Nc2c(Cl)cnc3[nH]ccc23)C1` [compound 189]: the Ki on ROCK I (setting [1]) is over 4000 nM; at JAK3 (setting [1]), 500 to 5000 nM; on JAK2 (setting [1]) it was under 500 nM.

Turning to `CC(C)CNc1cccc(-c2ccnc3[nH]ccc23)n1` [compound 20], the Ki on ROCK I (setting [2]) fell in the range of 500 to 5000 nM; on JAK3 (enzyme inhibition, Table 5), 500 to 5000 nM; on JAK2 (enzyme inhibition, Table 5) it was 500 to 5000 nM.

For `CC(C)NC(=O)c1cc(-c2ccnc3[nH]ccc23)c[nH]1` [compound 264], the Ki at ROCK I (setting [1]), at JAK3 (setting [1]) and at JAK2 (setting [1]) was under 500 nM throughout.

Take `Clc1cnc2[nH]ccc2c1-c1ccco1` [compound 136]: the Ki on ROCK I (setting [1]), at JAK3 (setting [1]) and on JAK2 (setting [1]) was under 500 nM throughout.

`CCCN(CCC)C(=O)c1cc(-c2ccnc3[nH]ccc23)c[nH]1` [compound 309]: the Ki at ROCK I (setting [1]), on JAK3 (setting [1]) and at JAK2 (setting [1]) was under 500 nM each time.

In the case of `C[C@H](Nc1cccc(-c2ccnc3[nH]ccc23)n1)C(=O)NCC(F)(F)F` [compound 122, (S)-2-(6-(1H-pyrrolo[2,3b]pyridin-4-yl)pyridin-2-ylamino)-N-(2,2,2-trifluoroethyl)propanamide], the Ki is 500 to 5000 nM at ROCK I (setting [2]); under 500 nM on JAK3 (enzyme inhibition, Table 5); 500 to 5000 nM at JAK2 (enzyme inhibition, Table 5).

On to `C[C@H](Nc1nc(-c2ccnc3[nH]ccc23)nc2ccccc12)C(=O)NCC(F)(F)F` [compound 134], for which the Ki on ROCK I (setting [2]) is 500 to 5000 nM; on JAK3 (enzyme inhibition, Table 5), 500 to 5000 nM; at JAK2 (enzyme inhibition, Table 5) it was over 5000 nM.

Take `CC1CCCN(c2cccc(-c3ccnc4[nH]ccc34)n2)C1` (stereo not drawn) [compound 25, 4-(6-(3-Methylpiperidin-1-yl)pyridin-2-yl)-1H-pyrrolo[2,3-b]pyridine]: the Ki is under 500 nM on ROCK I (setting [2]); 500 to 5000 nM on JAK3 (enzyme inhibition, Table 5); under 500 nM on JAK2 (enzyme inhibition, Table 5).

In the case of `CN(CCC#N)C(=O)c1cc(-c2c(F)cnc3[nH]ccc23)c[nH]1` [compound 386], the Ki was 500 to 5000 nM at ROCK I (setting [1]), under 500 nM at JAK3 (setting [1]) and under 500 nM at JAK2 (setting [1]).

Regarding `CC(=O)Nc1ccc(-c2ccnc3[nH]ccc23)cc1` [compound 43, N-[4-(1H-Pyrrolo[2,3-b]pyridin-4-yl)-phenyl]-acetamide], the Ki is under 500 nM at ROCK I (setting [2]); under 500 nM on JAK3 (enzyme inhibition, Table 5); under 500 nM at JAK2 (enzyme inhibition, Table 5).

As to `OC1CCN(c2cccc(-c3ccnc4[nH]ccc34)n2)C1` (stereo not drawn) [compound 51], the Ki was in the range of 500 to 5000 nM at ROCK I (setting [2]); 500 to 5000 nM at JAK3 (enzyme inhibition, Table 5); 500 to 5000 nM on JAK2 (enzyme inhibition, Table 5).

Values taken from patent US8921376B2, “Pyrrolopyridines useful as inhibitors of protein kinase” (Vertex Pharmaceuticals Incorporated, priority 2005, dated 2014).
